# Experimental data from EP4509511A1, “SUBSTITUTED SPIRO-ISOXAZOLINYL LACTAMS, SALTS THEREOF AND THEIR USE AS HERBICIDALLY ACTIVE SUBSTANCES” (Bayer Aktiengesellschaft, priority 2023, dated 2025).
# What was measured:
# MATIN [1] = assay: Herbicidal post-emergence action - Part II; format: in vivo, Matricaria inodora; conditions: 20 g/ha; Table E4b
# Excerpt: (§1) Seeds of mono- and dicotyledonous weed plants and crop plants were sown, in plastic or organic planting pots, in sandy loam, covered with soil and grown in a greenhouse under controlled growth conditions. 2 to 3 weeks after sowing, the test plants were sprayed in the single-leaf stage. The compounds according to the invention, formulated in form of wettable powders (WP) or as emulsifiable concentrates (EC), were sprayed onto the green plant parts as aqueous suspension or emulsion, with the addition of 0.5% of an additive, at an application rate of 600 1 of water/ha (converted). The test plants were placed in the greenhouse for ca. 3 weeks under optimum growth conditions, and then the effect of the preparations was assessed visually in comparison with untreated controls (herbicidal effect in percent (%): 100% effect = plants have died off, 0% effect = as control plants). Tables E1 to E10 below show the effects of selected compounds of the general formula (I) according to table 1 on various harmful plants and an application rate corresponding to 320 g/ha or below obtained by the experimental procedure mentioned above. Table E1a: post-emergence activity at 5g/ha against ABUTH in %
# ZEAMX = assay: Post-emergence effects on crop plants; format: in vivo, Zea mays; conditions: crop plant
# Excerpt: as §1, with “F1” for “E1”, “F5” for “E10”, “crop” for “harmful”, “[…]:” for “E1a:”, “ZEAMX” for “ABUTH”
# POLCO = assay: Herbicidal post-emergence action - Part II; format: in vivo, Polygonum convolvulus; conditions: 20 g/ha; Table E6
# Excerpt: as §1
# VERPE [2] = assay: Herbicidal post-emergence action - Part II; format: in vivo, Veronica persica; conditions: 20 g/ha; Table E8b
# Excerpt: as §1
# AMARE [3] = assay: Herbicidal post-emergence action - Part II; format: in vivo, Amaranthus retroflexus
# Excerpt: as §1
# TRZAS = assay: Post-emergence effects on crop plants; format: in vivo, Triticum aestivum; conditions: crop plant
# Excerpt: as §1, with “F1” for “E1”, “F5” for “E10”, “crop” for “harmful”, “[…]:” for “E1a:”, “ZEAMX” for “ABUTH”
# ABUTH = assay: Herbicidal post-emergence action - Part II; format: in vivo, Abutilon theophrasti; conditions: 20 g/ha; Table E1b
# Excerpt: as §1
# PHBPU = assay: Herbicidal post-emergence action - Part II; format: in vivo, Pharbitis purpurea
# Excerpt: as §1
# VIOTR = assay: Herbicidal post-emergence action - Part II; format: in vivo, Viola tricolor; conditions: 20 g/ha; Table E9b
# Excerpt: as §1
# STEME [4] = assay: Herbicidal post-emergence action - Part I; format: in vivo, Stellaria media; conditions: one-leaf stage, rated visually after about 3 weeks vs untreated controls
# Description: (§2) Seeds of mono- and dicotyledonous weed plants were placed in plastic pots in sandy loam soil (doubly sown with in each case one species of mono- or dicotyledonous weed plants per pot), covered with soil and cultivated in a greenhouse under controlled growth conditions. 2 to 3 weeks after sowing, the test plants were treated at the one-leaf stage. The compounds of the invention, formulated in the form of wettable powders (WP) or as emulsion concentrates (EC), were applied onto the green parts of the plants as aqueous suspension or emulsion with addition of 0.5% additive at a water application rate of 600 liters per hectare (converted). After the test plants had been kept in the greenhouse under optimum growth conditions for about 3 weeks, the activity of the preparations was rated visually in comparison to untreated controls. For example, 100% activity = the plants have died, 0% activity = like control plants. Tables B1 to B12, below, show the effects of selected compounds of the general formula (I) according to table 1 on various harmful plants and an application rate corresponding to 1280 g/ha or below obtained by the experimental procedure mentioned above. Table B1a: post-emergence activity at 1280g/ha against ABUTH in %
# KCHSC = assay: Herbicidal pre-emergence action - Part I; format: in vivo, Kochia scoparia; conditions: Table A10a, 1280 g/ha, visual grading after ca. 3 weeks vs untreated controls
# Excerpt: (§3) Seeds of mono- and dicotyledonous weed plants were sown in plastic pots (double sowings with one species of mono- and one species of dicotyledonous weed plants per pot), in sandy loam, and covered with soil. The compounds according to the invention, formulated in the form of wettable powders (WP) or as emulsifiable concentrates (EC), were applied to the surface of the covering soil as aqueous suspension or emulsion, with the addition of 0.5% of an additive, at an application rate of 600 1 of water per hectare (converted). Following treatment, the pots were placed in a greenhouse and kept under optimum growth conditions for the test plants. The visual grading of the damage to the test plants was carried out after ca. 3 weeks in comparison to untreated controls (herbicidaleffectinpercent(%):100%effect=plantshavediedoff,0%effect=ascontrolplants). [formula]
# (§4) Tables A1 to A12, below, show the effects of selected compounds of the general formula (I) according to table 1 on various harmful plants and an application rate corresponding to 1280 g/ha or below obtained by the experimental procedure mentioned above. Table A1: pre-emergence activity at 1280g/ha against ABUTH in %
# POAAN [5] = assay: Herbicidal pre-emergence action - Part I; format: in vivo, Poa annua; conditions: visual grading after ca. 3 weeks vs untreated controls
# Excerpt: as §3, §4
# SETVI = assay: Herbicidal pre-emergence action - Part I; format: in vivo, Setaria viridis; conditions: 1280 g/ha, visual grading after ca. 3 weeks vs untreated controls
# Excerpt: as §3, §4
# AMARE [6] = assay: Herbicidal post-emergence action - Part I; format: in vivo, Amaranthus retroflexus; conditions: 1280 g/ha, one-leaf stage, rated visually after about 3 weeks vs untreated controls
# Description: as §2
# DIGSA = assay: Herbicidal pre-emergence action - Part I; format: in vivo, Digitaria sanguinalis; conditions: 1280 g/ha, visual grading after ca. 3 weeks vs untreated controls
# Excerpt: as §3, §4
# STEME [7] = assay: Herbicidal pre-emergence action - Part I; format: in vivo, Stellaria media; conditions: visual grading after ca. 3 weeks vs untreated controls
# Excerpt: as §3, §4
# ECHCG [8] = assay: Herbicidal pre-emergence action - Part I; format: in vivo, Echinochloa crus-galli; conditions: 1280 g/ha, visual grading after ca. 3 weeks vs untreated controls
# Excerpt: as §3, §4
# MATIN [9] = assay: Herbicidal pre-emergence action - Part I; format: in vivo, Matricaria inodora; conditions: 1280 g/ha, visual grading after ca. 3 weeks vs untreated controls
# Excerpt: as §3, §4
# AMARE [10] = assay: Herbicidal pre-emergence action - Part I; format: in vivo, Amaranthus retroflexus; conditions: visual grading after ca. 3 weeks vs untreated controls
# Excerpt: as §3, §4
# POAAN [11] = assay: Herbicidal post-emergence action - Part I; format: in vivo, Poa annua; conditions: 1280 g/ha, one-leaf stage, rated visually after about 3 weeks vs untreated controls
# Description: as §2
# ECHCG [12] = assay: Herbicidal post-emergence action - Part I; format: in vivo, Echinochloa crus-galli; conditions: 1280 g/ha, one-leaf stage, rated visually after about 3 weeks vs untreated controls
# Description: as §2
# VERPE [13] = assay: Herbicidal post-emergence action - Part I; format: in vivo, Veronica persica; conditions: 1280 g/ha, one-leaf stage, rated visually after about 3 weeks vs untreated controls
# Description: as §2
compound,measurement,setting,value
COC(=O)CN1CCCC2(CC(c3cc(-n4c(=O)cc(C(F)(F)F)n(C)c4=O)c(F)cc3Cl)=NO2)C1=O (racemic) [Compound I-57],post-emergence activity against MATIN,MATIN [1],100%
same,post-emergence activity against ZEAMX,"ZEAMX; 5 g/ha, Table F1a",20%
same,post-emergence activity against ZEAMX,"ZEAMX; 20 g/ha, Table F1b",20%
same,post-emergence activity against POLCO,POLCO,100%
same,post-emergence activity against VERPE,VERPE [2],100%
same,post-emergence activity against AMARE,"AMARE [3]; 5 g/ha, Table E2a",100%
same,post-emergence activity against AMARE,"AMARE [3]; 20 g/ha, Table E2b",100%
same,post-emergence activity against TRZAS,"TRZAS; 5 g/ha, Table F2a",20%
same,post-emergence activity against TRZAS,"TRZAS; 20 g/ha, Table F2b",20%
same,post-emergence activity against ABUTH,ABUTH,100%
same,post-emergence activity against PHBPU,"PHBPU; 5 g/ha, Table E5a",100%
same,post-emergence activity against PHBPU,"PHBPU; 20 g/ha, Table E5b",100%
same,post-emergence activity against VIOTR,VIOTR,100%
"O=C1N(Cc2c(F)cccc2F)CCC12CC(c1ccccc1F)=NO2 (racemic) [Compound I-27, 7-(2,6-Difluorobenzyl)-3-(2-fluorophenyl)-1-oxa-2,7-diazaspiro[4.4]non-2-en-6-one]",post-emergence activity at 320g/ha against STEME in %,STEME [4]; 320 g/ha,90%
same,post-emergence activity at 1280g/ha against STEME in %,STEME [4]; 1280 g/ha,90%
same,pre-emergence activity at 1280g/ha against KCHSC in %,KCHSC,90%
same,pre-emergence activity at 320g/ha and against POAAN in %,POAAN [5],100%
same,pre-emergence activity at 1280g/ha and against POAAN in %,POAAN [5],100%
same,pre-emergence activity at 1280g/ha and against SETVI in %,SETVI,90%
same,post-emergence activity at 1280g/ha against AMARE in %,AMARE [6],90%
same,pre-emergence activity at 1280g/ha against DIGSA in %,DIGSA,90%
same,pre-emergence activity at 320g/ha against STEME in %,STEME [7]; 320 g/ha,90%
same,pre-emergence activity at 1280g/ha against STEME in %,STEME [7]; 1280 g/ha,90%
same,pre-emergence activity at 1280g/ha against ECHCG in %,ECHCG [8],100%
same,pre-emergence activity at 1280g/ha against MATIN in %,MATIN [9],90%
same,pre-emergence activity at 320g/ha against AMARE in %,AMARE [10]; 320 g/ha,90%
same,pre-emergence activity at 1280g/ha against AMARE in %,AMARE [10]; 1280 g/ha,90%
"Cc1ccccc1CN1CCCC2(CC(c3sccc3C)=NO2)C1=O (racemic) [Compound I-4, 7-(2-Methylbenzyl)-3-(3-methyl-2-thienyl)-1-oxa-2,7-diazaspiro[4.5]dec-2-en-6-one]",post-emergence activity at 1280g/ha against POAAN in %,POAAN [11],90%
same,post-emergence activity at 1280g/ha against ECHCG in %,ECHCG [12],90%
same,pre-emergence activity at 320g/ha and against POAAN in %,POAAN [5],100%
same,pre-emergence activity at 1280g/ha and against POAAN in %,POAAN [5],100%
same,pre-emergence activity at 1280g/ha and against SETVI in %,SETVI,90%
same,post-emergence activity at 1280g/ha against AMARE in %,AMARE [6],90%
same,post-emergence activity at 1280g/ha against VERPE in %,VERPE [13],90%
